Source: ChEMBL document CHEMBL5325485, “Design, synthesis and biological evaluation of salicylanilides as novel allosteric inhibitors of human pancreatic lipase” (Bioorg Med Chem, 2023)
pIC50, pKi: −log10 of the molar value.

Columns and labels:
[1] = biological target: T1, Pancreatic triacylglycerol lipase (Homo sapiens, UniProt P16233); experiment: Negative allosteric modulator activity at human Pancreatic lipase using DDAO-ol as fluorescent substrate preincubated for 3 mins followed by substrate addition measured after 20 mins by microplate reader assay
T1 sequence (P16233 whole entry): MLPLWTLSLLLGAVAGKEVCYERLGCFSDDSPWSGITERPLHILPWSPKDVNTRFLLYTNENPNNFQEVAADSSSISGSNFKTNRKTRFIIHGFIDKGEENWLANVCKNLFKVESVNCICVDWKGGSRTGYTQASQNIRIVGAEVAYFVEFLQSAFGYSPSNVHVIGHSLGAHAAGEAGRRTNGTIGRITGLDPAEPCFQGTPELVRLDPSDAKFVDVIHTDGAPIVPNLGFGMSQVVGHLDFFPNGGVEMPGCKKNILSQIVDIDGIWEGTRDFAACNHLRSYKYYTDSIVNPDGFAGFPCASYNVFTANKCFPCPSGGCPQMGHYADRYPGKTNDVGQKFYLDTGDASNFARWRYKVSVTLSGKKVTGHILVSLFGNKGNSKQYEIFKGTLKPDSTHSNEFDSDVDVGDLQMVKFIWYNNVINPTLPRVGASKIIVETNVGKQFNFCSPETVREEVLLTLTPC

[2] = biological target: T1, Pancreatic triacylglycerol lipase; experiment: Inhibition of Pancreatic lipase (unknown origin) using 4-MUO as fluorescent substrate preincubated for 3 mins followed by substrate addition measured after 20 mins by microplate reader assay
[3] = biological target: T2, Pancreatic triacylglycerol lipase (Homo sapiens) (UniProt P16233); experiment: Binding affinity to human Pancreatic lipase assessed as Stem-Volmer quenching constant by fluorescence quenching assay based spectrophotometer analysis; conditions: filed as negative allosteric modulator
T2 sequence (whole entry): T1 sequence (P16233 whole entry)

[4] = biological target: T1, Pancreatic triacylglycerol lipase; experiment: Negative allosteric modulator activity at human Pancreatic lipase assessed as inhibition of PL-mediated DDAO-ol hydrolysis by measuring inhibition constant using DDAO-ol as fluorescent substrate by Lineweaver-Burk plot analysis
[5] = biological target: T2, Pancreatic triacylglycerol lipase (Homo sapiens); experiment: Binding affinity to human Pancreatic lipase assessed as quenching constant by fluorescence quenching assay based spectrophotometer analysis; conditions: filed as negative allosteric modulator

pIC50 [1] | SMILES | further results
4.91 | O=C(Nc1ccc(Oc2ccc(Cl)cc2)c(Cl)c1)c1ccc(Cl)cc1O | 
4.63 | O=C(Nc1ccc(Oc2ccc(Cl)cc2)c(Cl)c1)c1ccccc1F | 
4.80 | O=C(Nc1ccc(Oc2ccc(Cl)cc2)c(Cl)c1)c1ccccc1OC(F)(F)F | 
5.03 | CC(C)Oc1ccc(Oc2ccc(NC(=O)c3ccccc3O)cc2)cc1 | 
4.94 | O=C(Nc1ccc(Oc2ccc(F)cc2)c(F)c1)c1ccccc1O | 
 | CC1(C)CC[C@]2(C(=O)O)CC[C@]3(C)C(=CC[C@@H]4[C@@]5(C)CCC(=O)C(C)(C)[C@@H]5CC[C@]43C)[C@@H]2C1 [OLEANONIC ACID] | pIC50 [2]: 6.31
5.22 | CCCNc1ccc(C(=O)Nc2ccc(Oc3ccc(Cl)cc3)c(Cl)c2)c(O)c1 | 
5.48 | CC(C)=CC[C@]12Oc3cc(O)c([C@H]4C=C(C)C[C@H](c5ccc(O)cc5O)[C@H]4C(=O)c4ccc(O)cc4O)c(O)c3C(=O)[C@@]1(O)Oc1cc(O)ccc12 [SANGGENON C] | 
5.20 | Nc1ccc(C(=O)Nc2ccc(Oc3ccc(Cl)cc3)c(Cl)c2)c(O)c1 | 
4.72 | O=C(Nc1ccc(Oc2ccccc2)cc1)c1ccccc1O | 
4.92 | Cc1ccc(Oc2ccc(NC(=O)c3ccccc3O)cc2)cc1 | 
4.69 | O=C(Nc1ccc(Oc2ccc(Cl)cc2)cc1)c1ccccc1O | 
5.79 | O=C(Nc1ccc(Oc2ccc(Cl)cc2)c(Cl)c1)c1cc(Cl)cc(Cl)c1O | KSV [3]: 3.39 10^6L/mol; pKi [4]: 5.77; Kq [5]: 3.39 10^14L/mol/s
5.00 | COc1ccc(C(=O)Nc2ccc(Oc3ccc(Cl)cc3)c(Cl)c2)c(O)c1 | 
4.74 | CCCOc1ccccc1C(=O)Nc1ccc(Oc2ccc(Cl)cc2)c(Cl)c1 | 
4.56 | Cc1ccccc1C(=O)Nc1ccc(Oc2ccc(Cl)cc2)c(Cl)c1 | 
4.91 | CCCCCCNc1ccc(C(=O)Nc2ccc(Oc3ccc(Cl)cc3)c(Cl)c2)c(O)c1 | 
5.17 | O=C(Nc1ccc(Oc2ccc(Cl)cc2)c(Cl)c1)c1ccccc1O | 
5.67 | O=C(Nc1ccc(Oc2ccc(Cl)cc2)c(Cl)c1)c1cc(Br)cc(Br)c1O | 
4.96 | O=C(Nc1ccc(Oc2ccc(Cl)cc2)c(Cl)c1)c1ccccc1Br | 
4.58 | COc1cccc(O)c1C(=O)Nc1ccc(Oc2ccc(Cl)cc2)c(Cl)c1 | 
5.73 | O=C(Nc1ccc(Oc2ccc(Cl)cc2)c(Cl)c1)c1cc(F)cc(F)c1O | KSV [3]: 3.61 10^6L/mol; pKi [4]: 5.78; Kq [5]: 3.61 10^14L/mol/s
4.82 | O=C(Nc1ccc(Oc2ccc(Cl)cc2)c(Cl)c1)c1ccccc1Cl | 
4.98 | O=C(Nc1ccc(Oc2ccc(Cl)cc2)c(Cl)c1)c1ccccc1 | 
4.49 | COc1ccc(Oc2ccc(NC(=O)c3ccccc3O)cc2)cc1 | 
5.37 | O=C(Nc1ccc(Oc2ccc(Cl)cc2)c(Cl)c1)c1ccc(F)cc1O | 
4.78 | COc1ccccc1C(=O)Nc1ccc(Oc2ccc(Cl)cc2)c(Cl)c1 | 
< 3.30 | O=C(Nc1ccc(O)cc1)c1ccccc1O [OSALMID] | 
5.00 | O=C(Nc1ccc(Oc2ccccc2)c(Cl)c1)c1ccccc1O | 

SMILES | pIC50 [1] | further results
O=C(Nc1ccc(Oc2ccc(Cl)cc2)c(Cl)c1)c1cc(I)cc(I)c1O [RAFOXANIDE] | 5.60 | 
